Legend:
Conditions in all cases: exposure: 6-8 hpf to 5 dpf, scored at 6 dpf
[1] = system: Danio rerio embryo/larva; assay: BMC craniofacial defects; higher = less potent
Description: (§1)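 Zebrafish embryos (with chorion) were exposed from 6-8 hpf to each PFAS (8-point half-log series, top concentration up to 100 uM, 0.4% DMSO, sealed plates, 26 C; n = 6 embryos per concentration), rinsed at 5 dpf and scored at 6 dpf by two blinded observers for mortality, hatching and malformations. Endpoint scores are the % of living larvae affected (dead larvae excluded; […]). Curves were fitted with tcpl (cutoff 16%), and the BMC is the concentration at a benchmark response of 21.6%.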

[2] = system: Danio rerio embryo/larva; assay: BMC any abnormality; max tested concentration (log10 uM): 2; higher = less potent
Description: as §1

[3] = system: Danio rerio embryo/larva; assay: max % larvae with any abnormality across tested concentrations; max tested concentration (log10 uM): 2; higher = more toxic; extreme values may be limits of the assay
[4] = system: Danio rerio embryo/larva; assay: max % larvae unhatched across tested concentrations; max tested concentration (log10 uM): 2; higher = more toxic
[5] = system: Danio rerio embryo/larva; assay: BMC swim bladder non-inflation; higher = less potent
Description: as §1

[6] = system: Danio rerio embryo/larva; assay: BMC edema; higher = less potent
Description: as §1

[7] = system: Danio rerio embryo/larva; assay: max % larvae dead across tested concentrations; max tested concentration (log10 uM): 2; higher = more toxic; extreme values may be limits of the assay
[8] = system: Danio rerio embryo/larva; assay: BMC mortality; max tested concentration (log10 uM): 2; higher = less potent
Description: as §1

[9] = system: Danio rerio embryo/larva; assay: BMC abnormal position; higher = less potent
Description: as §1

[10] = system: Danio rerio embryo/larva; assay: max % larvae with blood pooling across tested concentrations; higher = more toxic; extreme values may be limits of the assay
[11] = system: Danio rerio embryo/larva; assay: max % larvae with tail defects across tested concentrations; higher = more toxic; extreme values may be limits of the assay
[12] = system: Danio rerio embryo/larva; assay: max % larvae with pigmentation defects across tested concentrations; higher = more toxic
[13] = system: Danio rerio embryo/larva; assay: BMC general abnormality; higher = less potent
Description: as §1

[14] = system: Danio rerio embryo/larva; assay: max % larvae with craniofacial defects across tested concentrations; higher = more toxic; extreme values may be limits of the assay
[15] = system: Danio rerio embryo/larva; assay: max % larvae with edema across tested concentrations; higher = more toxic; extreme values may be limits of the assay
[16] = system: Danio rerio embryo/larva; assay: max % larvae with abnormal position across tested concentrations; higher = more toxic; extreme values may be limits of the assay
[17] = system: Danio rerio embryo/larva; assay: max % larvae with uninflated swim bladder across tested concentrations; higher = more toxic; extreme values may be limits of the assay
[18] = system: Danio rerio embryo/larva; assay: max % larvae generally abnormal across tested concentrations; higher = more toxic; extreme values may be limits of the assay
[19] = system: Danio rerio embryo/larva; assay: max % larvae with spinal defects across tested concentrations; higher = more toxic; extreme values may be limits of the assay
[20] = max tested concentration (log10 uM): 2
[21] = max tested concentration (log10 uM): 1
[22] = max tested concentration (log10 uM): 0.477121

SMILES: FC(F)(I)C(F)(F)C(F)(F)C(F)(F)I [Perfluoro-1,4-diiodobutane]
- BMC craniofacial defects [1, 20]: 74.2 µM
- BMC any abnormality [2]: 14.8 µM
- max % larvae [3]: 70.8%
- max % larvae unhatched across tested concentrations [4]: 0%
- BMC swim bladder non-inflation [5, 20]: 25.6 µM
- BMC edema [6, 20]: 20.6 µM
- max % larvae dead across tested concentrations [7]: 16.7%

SMILES: O=C(O)C(F)(F)OC(F)(F)C(F)(F)OC(F)(F)C(F)(F)OC(F)(F)C(F)(F)C(F)(F)C(F)(F)F [Perfluoro-3,6,9-trioxatridecanoic acid]
- BMC mortality [8]: 7.79 µM
- BMC abnormal position [9, 21]: 8.04 µM
- BMC any abnormality [2]: 2.47 µM
- max % larvae [3]: 100%
- max % larvae unhatched across tested concentrations [4]: 0%
- BMC swim bladder non-inflation [5, 21]: 1.3 µM
- BMC edema [6, 21]: 3.13 µM
- max % larvae dead across tested concentrations [7]: 100%

SMILES: O=C(O)C(F)(F)OC(F)(F)C(F)(F)OC(F)(F)C(F)(F)C(F)(F)C(F)(F)F [Perfluoro-3,6-dioxadecanoic acid]
- BMC mortality [8]: 75.3 µM
- max % larvae [3]: 91.7%
- max % larvae unhatched across tested concentrations [4]: 0%
- max % larvae dead across tested concentrations [7]: 66.7%

SMILES: O=C(O)C(F)(F)C(F)(F)C(F)(F)C(F)(F)C(F)(F)C(F)(F)C(F)(F)C(F)(F)C(F)(F)F [Perfluorodecanoic acid]
- BMC mortality [8]: 11.2 µM
- BMC any abnormality [2]: 9.34 µM
- max % larvae [3]: 100%
- max % larvae unhatched across tested concentrations [4]: 0%
- BMC swim bladder non-inflation ([5]; max tested concentration (log10 uM): 1.47712): 10.1 µM
- max % larvae dead across tested concentrations [7]: 100%

SMILES: NS(=O)(=O)C(F)(F)C(F)(F)C(F)(F)C(F)(F)C(F)(F)C(F)(F)F [Perfluorohexanesulfonamide]
- BMC abnormal position [9, 22]: 2.67 µM
- BMC craniofacial defects [1, 22]: 2.4 µM
- BMC any abnormality [2]: 1.45 µM
- max % larvae [3]: 100%
- max % larvae unhatched across tested concentrations [4]: 0%
- BMC swim bladder non-inflation [5, 22]: 2.28 µM
- BMC edema [6, 22]: 1.66 µM

SMILES: O=S(=O)(O)C(F)(F)C(F)(F)C(F)(F)C(F)(F)C(F)(F)C(F)(F)F [Perfluorohexanesulfonic acid]
- BMC abnormal position [9, 20]: 90.6 µM
- BMC craniofacial defects [1, 20]: 78.9 µM
- BMC any abnormality [2]: 30.2 µM
- max % larvae [3]: 100%
- max % larvae unhatched across tested concentrations [4]: 0%
- BMC swim bladder non-inflation [5, 20]: 34.1 µM
- BMC edema [6, 20]: 31.7 µM

SMILES: O=C(O)C(F)(F)C(F)(F)C(F)(F)C(F)(F)C(F)(F)C(F)(F)C(F)(F)C(F)(F)F [Perfluorononanoic acid]
- BMC mortality [8]: 73.9 µM
- BMC abnormal position [9, 20]: 87.8 µM
- BMC any abnormality [2]: 25.5 µM
- max % larvae [3]: 100%
- max % larvae unhatched across tested concentrations [4]: 0%
- BMC swim bladder non-inflation [5, 20]: 25.5 µM
- BMC edema [6, 20]: 28 µM
- max % larvae dead across tested concentrations [7]: 75%

SMILES: N=C(N)C(F)(F)C(F)(F)C(F)(F)C(F)(F)C(F)(F)C(F)(F)C(F)(F)F [Perfluorooctanamidine]
- BMC mortality [8]: 19.5 µM
- BMC any abnormality [2]: 19.5 µM
- max % larvae [3]: 100%
- max % larvae unhatched across tested concentrations [4]: 0%
- max % larvae dead across tested concentrations [7]: 100%

SMILES: NS(=O)(=O)C(F)(F)C(F)(F)C(F)(F)C(F)(F)C(F)(F)C(F)(F)C(F)(F)C(F)(F)F [Perfluorooctanesulfonamide] (max tested concentration (log10 uM): 0)
- max % larvae [10]: 16.7%
- max % larvae [11]: 0%
- max % larvae [12]: 0%
- BMC general abnormality [13]: 0.381 µM
- max % larvae [14]: 8.33%
- max % larvae [15]: 37.5%
- max % larvae [16]: 8.33%
- max % larvae [17]: 50%
- max % larvae generally abnormal across tested concentrations [18]: 41.7%
- max % larvae [19]: 0%

SMILES: O=S(=O)(O)C(F)(F)C(F)(F)C(F)(F)C(F)(F)C(F)(F)C(F)(F)C(F)(F)C(F)(F)F [Perfluorooctanesulfonic acid]
- BMC mortality [8]: 9.38 µM
- BMC abnormal position [9, 21]: 9.2 µM
- BMC craniofacial defects [1, 21]: 8.4 µM
- BMC any abnormality [2]: 7.48 µM
- max % larvae [3]: 100%
- max % larvae unhatched across tested concentrations [4]: 0%
- BMC swim bladder non-inflation [5, 21]: 8.02 µM
- BMC edema [6, 21]: 8.58 µM
- max % larvae dead across tested concentrations [7]: 100%

SMILES: O=S(=O)(O)C(F)(F)C(F)(F)C(F)(F)C(F)(F)C(F)(F)C(F)(F)C(F)(F)C(F)(F)F [Perfluorooctanesulfonic acid] (max tested concentration (log10 uM): 1)
- max % larvae [10]: 0%
- max % larvae [11]: 18.8%
- max % larvae [12]: 0%
- BMC general abnormality [13]: 7.82 µM
- max % larvae [14]: 50%
- max % larvae [15]: 43.8%
- max % larvae [16]: 25%
- max % larvae [17]: 62.5%
- max % larvae generally abnormal across tested concentrations [18]: 75%
- max % larvae [19]: 6.25%

SMILES: OC(C(F)(F)F)(C(F)(F)F)C(O)(C(F)(F)F)C(F)(F)F [Perfluoropinacol]
- BMC craniofacial defects [1, 22]: 2.47 µM
- BMC any abnormality [2]: 1.94 µM
- max % larvae [3]: 100%
- max % larvae unhatched across tested concentrations [4]: 0%
- BMC swim bladder non-inflation [5, 22]: 2.28 µM
- BMC edema [6, 22]: 2.52 µM

SMILES: OC(C(F)(F)F)(C(F)(F)F)C(O)(C(F)(F)F)C(F)(F)F [Perfluoropinacol] (max tested concentration (log10 uM): 0.477121)
- max % larvae [10]: 0%
- max % larvae [11]: 0%
- max % larvae [12]: 0%
- BMC general abnormality [13]: 2.52 µM
- max % larvae [14]: 50%
- max % larvae [15]: 50%
- max % larvae [16]: 0%
- max % larvae [17]: 100%
- max % larvae generally abnormal across tested concentrations [18]: 50%
- max % larvae [19]: 0%

SMILES: O=C(O)C(F)(F)C(F)(F)C(F)(F)C(F)(F)C(F)(F)C(F)(F)C(F)(F)C(F)(F)C(F)(F)C(F)(F)F [Perfluoroundecanoic acid]
- BMC mortality [8]: 14.5 µM
- BMC any abnormality [2]: 2.94 µM
- max % larvae [3]: 100%
- max % larvae unhatched across tested concentrations [4]: 0%
- BMC edema [6, 22]: 2.74 µM
- max % larvae dead across tested concentrations [7]: 100%

SMILES: O=C(O)C(F)(F)C(F)(F)C(F)(F)C(F)(F)C(F)(F)C(F)(F)C(F)(F)C(F)(F)C(F)(F)C(F)(F)F [Perfluoroundecanoic acid] (max tested concentration (log10 uM): 0.477121)
- max % larvae [10]: 8.33%
- max % larvae [11]: 12.5%
- max % larvae [12]: 0%
- BMC general abnormality [13]: 2.74 µM
- max % larvae [14]: 16.7%
- max % larvae [15]: 25%
- max % larvae [16]: 8.33%
- max % larvae [17]: 16.7%
- max % larvae generally abnormal across tested concentrations [18]: 25%
- max % larvae [19]: 8.33%
